According to patent US20230087644A1, “Probe for Specifically Detecting Pathological Collagens, and Preparation Method Therefor and Use Thereof” (LANZHOU UNIVERSITY, priority 2020, published 2023):

Columns and labels:
[1] = Thermal stability test (fluorescence intensity at 525 nm, 0-95° C.); assay type: physicochemical; conditions: 15 μM probe in 10 mM phosphate buffer; for fluorescence intensity in the range of 0-95° C.: 525 nm, temperature gradient; for thermal transformation temperature: from derivative curves
Procedure: Take the peptide probe GOP-10, GPP-10, GPO-10 and GOO-10, and prepare 300 μM probe solutions respectively; Dilute each probe solution to 15 μM by 10 mM phosphate buffer, and store at 0° C. for later use. Take the probe solutions respectively, raise the temperature from 0° C. to 95° C. in a gradient, and detect the fluorescence intensity of the solutions at 525 nm during the temperature rise process to obtain the […]; Conduct the first derivative of the curve by corresponding the maximum value of the curve to the thermal change temperature of the probe.

[2] = Fluorescence spectrogram of probe solutions after 85° C. water bath and 0° C. ice bath; assay type: physicochemical; conditions: 300 μM probe solution, excitation 497 nm, emission 500-700 nm
Procedure: Take the peptide probe GOP-10, GPP-10, GPO-10 and GOO-10, and prepare 300 μM probe solutions respectively; Keep above probe solutions in a water bath at 85° C. for 20 min, and measure the fluorescence spectrogram by a fluorescence spectrophotometer immediately. Place heated probe solution in the ice-water mixture at 0° C. for 12 h, and measure the fluorescence spectrogram by fluorescence spectrophotometer again; The excitation wavelength is 497 nm, and the scanning range of emission spectrum is 500-700 nm.

[3] = Colorimetric assay of peptide probe solutions (trimer vs single-stranded state); assay type: physicochemical; conditions: 300 μM probe solution; for conformational state (colour of solution) at 0° C.: 0° C. ice-water for 12 h after heating; for conformational state (colour of solution) after heating: 85° C. water bath 20 min
Procedure: Take the peptide probe GOP-10, GPP-10, GPO-10 and GOO-10, and prepare 300 μM probe solutions respectively; Keep above probe solutions in a water bath at 85° C. for 20 min, and collect picture data via a digital camera and observe the color of the solutions. Place heated probe solution in the ice-water mixture at 0° C. for 12 h, and then collect picture data via a digital camera again and observe the color of the solution.

[4] = tested on: denatured collagen in mouse intestinal tissue; assay: Staining of collagen in intestinal tissue of mice by peptide probe; assay type: binding; conditions: 15 μM probe; for fluorescence staining ability, probe incubated at 0° C. before staining: FIG. 5a-d; for fluorescence staining ability, probe pretreated at 85° C. before staining: FIG. 5e-h
Procedure: Take the peptide probe GOP-10, GPP-10, GPO-10 and GOO-10, and prepare 300 μM probe solutions respectively; Take the intestinal tissue samples of mice paraffin embedding and slice to 4 μm; After washing and deparaffinating the slices, treat the intestinal tissue with ultrapure water at 85° C. for 10 minutes to denature collagen.

[5] = tested on: denatured collagen in sternum and tail tissue sections; assay: Staining of denatured collagen in paraffin-embedded mouse sternum and frozen tail tissue sections; assay type: binding; conditions: general statement on the probes of the embodiments
Procedure: Take the peptide probe prepared in Embodiment 1-5 for staining experiment. Paraffin staining of sternum: Embed mouse sternum tissue sections by paraffin and bake at 75° C. for 2 h; After cooling, treat the tissue with xylene twice, each time for 10 min; Then treat the slice with ethanol of gradient concentration; Finally, use ultrapure water to wash the slices twice. After removing the paraffin, treat the sternum tissue with ultrapure water at 85° C. for 10 minutes to denature collagen. Add blocking solution to the tissue section, leave it for 30 min, then suck up the solution, stain with 100 μL and 15 μM of the above peptide probe solutions, and incubate at 4° C. for 4 h; After removing the staining solution, wash with 1×PBS for 3 times, and wash the unbound probe with the washing solution; Drop mount solution, add cover slide, observe and take photos with fluorescence microscope.
Staining of frozen tail tissue: Treat tail tissue with 1% sodium dodecyl sulfate for 24 hours to denature collagen, and prepare the frozen sections. Put the slices in cold methanol and fix them at −20° C. for 10 min. Wash the frozen sections twice with PBS, add blocking solution to the tissue section, leave it for 30 min, then suck up the solution, stain with 100 μL and 15 μM of the above peptide probe solutions, and incubate at 4° C. for 2 h; After removing the staining solution, wash with 1×PBS for 3 times, and wash the unbound probe with the washing solution; Drop mount solution, add cover slide, observe and take photos with fluorescence microscope.
Results: The staining results of paraffin-embedded sternum tissues of peptide probe GOP-4, GOP-6, GOP-8, GOP-10 and GOP-12 prepared in Embodiment 1-5 of the present invention are shown in FIG. 1a.

[6] = tested on: pathological collagen in mouse ear tissue; assay: Staining of collagen in ear tissue of normal mice and diseased mice by peptide probe; assay type: binding; conditions: 15 μM probe
Procedure: Take the peptide probe GOP-10 and prepare 300 μM probe solutions;
Take mouse ear tissue samples for paraffin embedding and slice to 4 μm; After washing and deparaffinating the slice, treat part of the ear bone tissues with ultrapure water at 85° C. for 10 minutes to denature collagen, thus obtaining injured ear tissues; Untreated ear tissue is normal ear tissue. Add blocking solution to the tissue section, leave it for 30 min, then suck up the solution, stain with 100 μL and 15 μM of the above peptide probe solutions, and incubate at 4° C. for 4 h; After removing the staining solution, stain with 100 μL DAPI diluent for lmin and wash with 1×PBS for 3 times, and wash the unbound probe and excessive DAPI diluent with the washing solution; Drop mount solution, add cover slide, observe and take photos with fluorescence microscope;
The test results are shown in FIG. 6, in which the fluorescence detection results of injured mouse ear tissues are shown in FIG. 6a and normal mouse ear tissues are shown in FIG. 6b.

[7] = tested on: pathological collagen in human osteoarthritis tissue; assay: Staining of pathological section of human arthritis; assay type: binding; conditions: 15 μM probe, 4° C. 4 h
Procedure: Take human osteoarthritis tissue for paraffin embedding, slice to 4 μm, carry out washing and deparaffinating, and then add with 0.5 mL blocking solution, and suck off the liquid after placing for 30 min. Stain with 100 μL, 15 μM peptide probe solution, and incubate at 4° C. for 4 h. After removing the staining solution, stain with 100 μL DAPI diluent for 1 min. Use 1×PBS to wash for 3 times, and wash the unbound probes and excess DAPI. Drop mount solution, add cover slide, observe and take photos with fluorescence microscope.
The staining results of pathological sections of fibrocartilage of human osteoarthritis are shown in FIG. 7, and the staining results of pathological sections of hyaline cartilage of human osteoarthritis are shown in FIG. 8. […] Therefore, the peptide probe GOP-10 prepared by the invention can be used for detecting pathological collagen in human osteoarthritis fibrocartilage and osteoarthritis hyaline cartilage.

Row | fluorescence intensity in the range of 0-95° C. [1] | thermal transformation temperature [1] [°C] | change of fluorescence intensity between 85° C. water bath and 0° C. ice bath [2] | conformational state (colour of solution) at 0° C. [3] | conformational state (colour of solution) after heating [3] | Substance | fluorescence staining ability, probe incubated at 0° C. before staining [4] | fluorescence staining ability, probe pretreated at 85° C. before staining [4] | binding to pathological collagen [5] | fluorescence staining of injured mouse ear tissue ([6]; collagen denatured at 85° C. for 10 min, FIG. 6a) | fluorescence staining of normal mouse ear tissue ([6]; untreated ear tissue, FIG. 6b) | staining of pathological section of fibrocartilage of human osteoarthritis ([7]; FIG. 7) | staining of pathological section of hyaline cartilage of human osteoarthritis ([7]; FIG. 8)
1 | increased significantly | 63 | changed significantly | trimer state (orange) | single-stranded conformation (green) | FAM-Ahx-(GPO)10-NH2 [GPO-10] | no fluorescence staining ability | can be fluorescently stained |  |  |  |  | 
2 | increased significantly | 39 | changed significantly | trimer state (orange) | single-stranded conformation (green) | FAM-Ahx-(GPP)10-NH2 [GPP-10] | no fluorescence staining ability | can be fluorescently stained |  |  |  |  | 

Further lines, the substance ahead of its results:

Row | Substance | fluorescence intensity in the range of 0-95° C. [1] | thermal transformation temperature [1] [°C] | change of fluorescence intensity between 85° C. water bath and 0° C. ice bath [2] | conformational state (colour of solution) at 0° C. [3] | conformational state (colour of solution) after heating [3] | fluorescence staining ability, probe incubated at 0° C. before staining [4] | fluorescence staining ability, probe pretreated at 85° C. before staining [4] | binding to pathological collagen [5] | fluorescence staining of injured mouse ear tissue ([6]; collagen denatured at 85° C. for 10 min, FIG. 6a) | fluorescence staining of normal mouse ear tissue ([6]; untreated ear tissue, FIG. 6b) | staining of pathological section of fibrocartilage of human osteoarthritis ([7]; FIG. 7) | staining of pathological section of hyaline cartilage of human osteoarthritis ([7]; FIG. 8)
3 | FAM-Ahx-(GOO)10-NH2 [GOO-10] | increased significantly | 69 | changed significantly | trimer state (orange) | single-stranded conformation (green) | no fluorescence staining ability | can be fluorescently stained |  |  |  |  | 
4 | FAM-Ahx-(GOP)8-NH2 [GOP-8] |  |  |  |  |  |  |  | can specifically bind to pathological collagen |  |  |  | 
5 | FAM-Ahx-(GOP)10-NH2 [GOP-10] | does not change |  | does not change | stable single-stranded conformation (green) | single-stranded state (green) | good fluorescence staining ability | good fluorescence staining ability | can specifically bind to pathological collagen | stained green | no green fluorescence | can specifically bind to pathological collagen | can specifically bind to pathological collagen
6 | FAM-Ahx-(GOP)12-NH2 [GOP-12] |  |  |  |  |  |  |  | can specifically bind to pathological collagen |  |  |  | 
